From US7704986B2, “Vitamin D3 analogues for the prevention and treatment of bone disorders” (K.U. Leuven Research and Development, priority 2004, dated 2010) come the findings set out here.

Data set [1] has as its target T1, vitamin D receptor (VDR) (Sus scrofa, UniProt A3RGC1).
T1 construct: high speed supernatant from intestinal mucosa homogenates obtained from normal pigs; from tissue; host or cells: pig intestinal mucosa (high speed supernatant of homogenate)
T1 sequence (A3RGC1 1-427): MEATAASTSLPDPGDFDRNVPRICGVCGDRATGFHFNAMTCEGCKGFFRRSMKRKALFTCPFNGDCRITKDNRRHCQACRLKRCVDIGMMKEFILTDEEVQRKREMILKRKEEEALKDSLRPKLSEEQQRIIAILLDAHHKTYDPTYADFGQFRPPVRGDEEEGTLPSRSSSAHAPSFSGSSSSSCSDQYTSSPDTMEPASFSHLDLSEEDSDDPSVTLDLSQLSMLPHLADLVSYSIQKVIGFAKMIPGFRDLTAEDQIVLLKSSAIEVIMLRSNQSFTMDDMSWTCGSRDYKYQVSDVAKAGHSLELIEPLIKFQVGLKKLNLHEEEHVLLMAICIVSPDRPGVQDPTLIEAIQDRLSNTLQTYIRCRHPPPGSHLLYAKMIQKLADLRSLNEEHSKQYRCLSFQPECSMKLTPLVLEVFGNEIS
Kind of data set: Affinity for vitamin D receptor: competition with [3H]1α,25(OH)2D3. Type of data set: binding. Particulars: pig intestinal mucosa supernatant, 4° C. 20 hours; 1α,25(OH)2D3 = 100%. The protocol: The methods used herein to evaluate the binding properties of vitamin D analogues are state of the art techniques used for steroid hormone (including vitamin D) binding assays. […] Incubation was performed at 4° C. for 20 hours and phase separation was obtained by addition of dextran-coated charcoal.

Data set [2] concerns normal (no surgery) C3H female mice. The data set is described as follows: Oral gavage versus i.p. in normal (no surgery) mice, 5 weeks. Type of data set: in vivo. Particulars: for BMC total body, SHAM + vitaminD analogue vs. SHAM + vehicle (= 100%) in % / BMD spine, SHAM + vitaminD analogue vs. SHAM + vehicle (= 100%) in % / BMD total body, SHAM + vitaminD analogue vs. SHAM + vehicle (= 100%) in %: DEXA, 5 weeks, increase (↑). How it is done:
Besides injecting the compound MV2 intraperitoneally (results in table 3), it was also given orally by gavage in normal (no surgery) C3H female mice and the biological effects were investigated as described before. MV2 given orally at a dose of 1 μg/kg/2days (3 times per week) during 5 weeks was as effective as intraperitoneal injections at a dose of 0.5 μg/kg/2 days (4 times per week) during 5 weeks in C3H mice (Table 4).

Where [3] appears, read: 0.5 μg/kg/2 days i.p. 4 times per week.
[4] abbreviates: 1 μg/kg/2 days orally 3 times per week.

Turning to `C[C@H](CC#CC(O)(C(F)(F)F)C(F)(F)F)[C@@]1(C)CC[C@@H](/C=C/C=C2C[C@@H](O)C[C@H](O)C2)C1(C)C` [MV2, (1R,3R)-5-((E)-3-((1S,3R)-3-((1R)-6,6,6-trifluoro-5-hydroxy-1-methyl-5-trifluoromethyl-3-hexynyl)-2,2,3-trimethylcyclopentyl)-2-propenylidene)cyclohexane-1,3-diol], in data set [1], the “VDR (relative affinity)” value came to 50%. Besides, in data set [2] (setting [3]), the “BMC total body, SHAM + vitaminD analogue vs. SHAM + vehicle (= 100%) in %” value is given as 7 ↑ %; the “BMD spine, SHAM + vitaminD analogue vs. SHAM + vehicle (= 100%) in %” value is 9 ↑ %; the “BMD total body, SHAM + vitaminD analogue vs. SHAM + vehicle (= 100%) in %” value is on record as 4 ↑ %. Besides, in data set [2] (setting [4]), the “BMC total body, SHAM + vitaminD analogue vs. SHAM + vehicle (= 100%) in %” value is recorded as 10 ↑ %; the “BMD spine, SHAM + vitaminD analogue vs. SHAM + vehicle (= 100%) in %” value was 14 ↑ %; the “BMD total body, SHAM + vitaminD analogue vs. SHAM + vehicle (= 100%) in %” value is given as 5 ↑ %. The serum calcium levels in data set [2] (analogue treated mice, 5 weeks (control mice 11.43±0.78)) worked out at 11.36 ± 0.56 mg/dL.
